From article PMC7486275 (Nature, 2020)
Where two headings read alike, the source gives them in different places. Values belong to the compound of their own block, whether it stands above or below them. Peptide text beside a SMILES is read from it. * marks the point of attachment. Cbz = O=C(OCc1ccccc1)*

Tests used:
[1] = test system: K562Cas9, OVK16Cas9, A564Cas9, ES2Cas9 and MOLM13Cas9 cell lines; assay: Validation of drug-E3 ligase pairs; format: cell-based; conditions: flow-based validation, 3 days
[2] = target: CDK12-cycK complex by RBX1N8CUL4-DDB1 (Homo sapiens, UniProt Q16531+Q9NYV4, K965R); assay: In vitro ubiquitination assay; format: biochemical; conditions: 2 μM compound
CDK12-cycK complex by RBX1N8CUL4-DDB1, sequence (Q15843 1-76): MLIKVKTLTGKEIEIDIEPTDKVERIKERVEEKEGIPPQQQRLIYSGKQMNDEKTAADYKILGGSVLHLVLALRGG
CDK12-cycK complex by RBX1N8CUL4-DDB1, sequence (Q16531 whole entry): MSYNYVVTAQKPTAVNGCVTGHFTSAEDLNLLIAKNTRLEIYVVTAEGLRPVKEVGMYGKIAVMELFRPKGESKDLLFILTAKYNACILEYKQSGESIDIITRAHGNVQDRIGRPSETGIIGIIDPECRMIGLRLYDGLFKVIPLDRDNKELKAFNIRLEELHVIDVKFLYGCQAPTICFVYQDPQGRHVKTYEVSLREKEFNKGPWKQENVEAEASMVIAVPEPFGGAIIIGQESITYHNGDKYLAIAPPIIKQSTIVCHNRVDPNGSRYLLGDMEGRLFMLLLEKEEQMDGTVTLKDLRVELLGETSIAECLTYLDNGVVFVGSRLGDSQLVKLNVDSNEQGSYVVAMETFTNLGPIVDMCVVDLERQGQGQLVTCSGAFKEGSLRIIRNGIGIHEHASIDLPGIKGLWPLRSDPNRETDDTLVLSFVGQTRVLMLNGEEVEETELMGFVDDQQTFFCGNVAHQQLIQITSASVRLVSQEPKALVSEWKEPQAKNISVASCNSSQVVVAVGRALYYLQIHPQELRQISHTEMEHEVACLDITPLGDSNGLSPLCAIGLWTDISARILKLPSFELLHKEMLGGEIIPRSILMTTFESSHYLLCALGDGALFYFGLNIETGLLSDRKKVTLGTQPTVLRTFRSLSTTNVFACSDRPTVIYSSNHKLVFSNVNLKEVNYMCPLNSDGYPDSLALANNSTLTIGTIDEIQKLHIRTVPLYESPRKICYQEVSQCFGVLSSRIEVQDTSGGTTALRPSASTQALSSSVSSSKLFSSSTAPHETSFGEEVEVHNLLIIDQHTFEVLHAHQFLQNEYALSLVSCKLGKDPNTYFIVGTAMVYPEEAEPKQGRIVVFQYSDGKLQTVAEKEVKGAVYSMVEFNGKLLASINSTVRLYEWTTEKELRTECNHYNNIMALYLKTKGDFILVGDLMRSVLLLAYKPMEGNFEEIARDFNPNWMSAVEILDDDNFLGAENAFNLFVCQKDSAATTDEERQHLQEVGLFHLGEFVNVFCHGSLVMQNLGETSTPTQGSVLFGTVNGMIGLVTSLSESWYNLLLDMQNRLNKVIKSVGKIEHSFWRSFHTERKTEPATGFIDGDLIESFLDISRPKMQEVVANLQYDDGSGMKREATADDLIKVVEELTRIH
CDK12-cycK complex by RBX1N8CUL4-DDB1, sequence (Q9NYV4 713-1052 K965R): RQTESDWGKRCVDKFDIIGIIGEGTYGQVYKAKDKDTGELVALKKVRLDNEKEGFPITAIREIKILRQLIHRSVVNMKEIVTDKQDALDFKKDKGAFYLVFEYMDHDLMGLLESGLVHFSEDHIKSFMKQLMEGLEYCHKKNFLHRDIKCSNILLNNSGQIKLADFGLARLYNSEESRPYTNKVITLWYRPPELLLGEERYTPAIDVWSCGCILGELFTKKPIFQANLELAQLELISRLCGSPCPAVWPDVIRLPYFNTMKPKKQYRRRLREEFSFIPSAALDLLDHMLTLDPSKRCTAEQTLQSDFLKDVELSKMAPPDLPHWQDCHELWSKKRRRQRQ
CDK12-cycK complex by RBX1N8CUL4-DDB1, sequence (P62877 whole entry, further chain): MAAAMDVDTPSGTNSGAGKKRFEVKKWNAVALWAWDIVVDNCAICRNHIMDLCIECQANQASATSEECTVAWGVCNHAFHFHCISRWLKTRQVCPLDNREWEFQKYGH
CDK12-cycK complex by RBX1N8CUL4-DDB1, sequence (O75909 1-267, further chain): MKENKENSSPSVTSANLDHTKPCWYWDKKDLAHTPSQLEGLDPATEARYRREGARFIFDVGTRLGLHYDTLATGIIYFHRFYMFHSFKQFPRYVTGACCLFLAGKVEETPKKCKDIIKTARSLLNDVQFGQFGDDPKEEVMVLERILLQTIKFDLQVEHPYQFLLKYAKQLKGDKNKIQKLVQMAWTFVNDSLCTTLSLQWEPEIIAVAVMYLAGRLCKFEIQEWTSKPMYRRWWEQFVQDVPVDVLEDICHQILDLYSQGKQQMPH
CDK12-cycK complex by RBX1N8CUL4-DDB1, sequence (Q13619 whole entry, further chain): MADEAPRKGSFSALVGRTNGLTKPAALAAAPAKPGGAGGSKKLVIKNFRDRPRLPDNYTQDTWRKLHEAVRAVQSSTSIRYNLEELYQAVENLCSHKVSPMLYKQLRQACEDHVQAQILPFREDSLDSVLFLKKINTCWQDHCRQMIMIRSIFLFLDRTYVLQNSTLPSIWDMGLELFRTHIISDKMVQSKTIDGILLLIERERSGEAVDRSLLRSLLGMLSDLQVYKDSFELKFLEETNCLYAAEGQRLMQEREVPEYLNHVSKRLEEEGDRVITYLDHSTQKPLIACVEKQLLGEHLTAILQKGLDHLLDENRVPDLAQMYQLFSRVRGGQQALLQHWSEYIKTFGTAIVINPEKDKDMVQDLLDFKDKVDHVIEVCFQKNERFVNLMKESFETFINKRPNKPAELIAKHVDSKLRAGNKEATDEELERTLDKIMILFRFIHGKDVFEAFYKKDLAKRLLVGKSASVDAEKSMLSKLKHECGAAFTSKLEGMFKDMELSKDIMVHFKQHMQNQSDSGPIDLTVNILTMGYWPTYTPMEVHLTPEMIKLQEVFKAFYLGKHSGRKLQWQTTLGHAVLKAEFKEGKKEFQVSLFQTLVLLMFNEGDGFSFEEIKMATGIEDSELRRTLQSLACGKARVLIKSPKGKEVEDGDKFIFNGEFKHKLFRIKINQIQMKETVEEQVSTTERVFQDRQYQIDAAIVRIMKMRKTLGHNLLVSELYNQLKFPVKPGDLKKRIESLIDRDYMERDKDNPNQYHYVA

[3] = target: cycKeGFP in HEK293TCas9 cells (Homo sapiens, UniProt Q16531+Q9NYV4); format: cell-based
[4] = test system: CycK in HEK293TCas9 cells; assay: Immunoblots of CycK degradation; format: cell-based, human; conditions: pre-treated with 0.5 μM MLN7243, 1 μM MLN4924 or 10 μM MG132 for 4 hours, then 1 μM CR8 for 2 hours
HEK293TCas9 cells = conditions: 3 days
CDK12-cycK and DDB1 = CDK12-cycK and DDB1 (Homo sapiens, UniProt Q16531+Q9NYV4, K965R); assay: TR-FRET titration of CDK12-Alexa488cycK to terbiumDDB1; conditions: vs basal binding in DMSO
CDK12-cycK and DDB1, sequence (Q9NYV4 713-1052 K965R): as the sequence (Q9NYV4 713-1052 K965R) above
CDK12-cycK and DDB1, sequence (O75909 1-267, further chain): as the sequence (O75909 1-267, further chain) above
CDK12-cycK and DDB1, sequence (Q16531 whole entry): as the sequence (Q16531 whole entry) above

Structure (SMILES): NS(=O)(=O)c1ccc(S(=O)(=O)Nc2cccc3c(Cl)c[nH]c23)cc1 [indisulam]
effect of sgRNAs targeting DCAF15 on drug-induced toxicity [1]: confer resistance

cycK ubiquitination in vitro [2]: less processive ubiquitination
Structure (SMILES): CC[C@H](CO)Nc1nc(NCc2ccccc2)c2ncn(C(C)C)c2n1 [Roscovitine]
degradation of the cycKeGFP reporter in cells [3]: neither DRF053 nor roscovitine induced degradation

Structure (SMILES): NS(=O)(=O)OC[C@H]1C[C@@H](Nc2ccnc3cc(-c4cccc(SC(F)(F)F)c4)nn23)[C@H](O)[C@@H]1O [MLN7243]
rescue of CR8-induced cycK degradation [4]: rescued

Structure (SMILES): NS(=O)(=O)OC[C@@H]1C[C@@H](n2ccc3c(N[C@H]4CCc5ccccc54)ncnc32)C[C@@H]1O [MLN4924]
rescue of CR8-induced cycK degradation [4]: rescued
effect on cell viability (HEK293TCas9 cells): only minor effects on cell viability

effect on CDK12-cycK interaction with DDB1 (TR-FRET signal) (CDK12-cycK and DDB1): further decreased the TR-FRET signal
Structure (SMILES): CN(C)C/C=C/C(=O)Nc1ccc(C(=O)N2CCC[C@@H](Nc3ncc(Cl)c(-c4c[nH]c5ccccc45)n3)C2)cc1 [THZ531]
cycK ubiquitination in vitro [2]: diminished cycK ubiquitination in vitro below DMSO control levels

Structure (SMILES): O=C(NS(=O)(=O)c1ccc(Br)s1)c1ccc(Cl)cc1Cl [tasisulam]
effect of sgRNAs targeting DCAF15 on drug-induced toxicity [1]: confer resistance

Structure (SMILES): Nc1ncnc2c1ncn2[C@@H]1O[C@H](COP(=O)(O)OP(=O)(O)OP(=O)(O)O)[C@@H](O)[C@H]1O [ATP]
effect on CDK12-cycK interaction with DDB1 (TR-FRET signal) (CDK12-cycK and DDB1): neither facilitated nor abrogated the interaction

Structure (SMILES): CC(C)C[C@@H](C=O)NC(=O)[C@H](CC(C)C)NC(=O)[C@H](CC(C)C)NC(=O)OCc1ccccc1 [MG132] (Cbz-Leu-Leu-Leu-aldehyde)
rescue of CR8-induced cycK degradation [4]: rescued

Structure (SMILES): CN1CC[C@H](c2c(O)cc(O)c3c(=O)cc(-c4ccccc4Cl)oc23)[C@H](O)C1 [Flavopiridol]
effect on CDK12-cycK interaction with DDB1 (TR-FRET signal) (CDK12-cycK and DDB1): stimulated the binding of CDK12-cycK to DDB1
cycK ubiquitination in vitro [2]: moderate cycK ubiquitination
degradation of the cycKeGFP reporter in cells ([3]; HEK293TCas9 cells, 1 μM compound, 2 hours): failed to degrade cycK in cells
